From patent US8912136B2, “Methods and compositions related to clot-binding compounds” (Sanford-Burnham Medical Research Institute, priority 2009, dated 2014)
Where no end group is shown, it is not given here. [ ]: non-standard residue; d: D form. NMeR = CN[C@@H](CCCNC(=N)N)C(=O)O; αMeR = C[C@](N)(CCCNC(=N)N)C(=O)O; NMeE = CN[C@@H](CCC(=O)O)C(=O)O; αMeE = C[C@](N)(CCC(=O)O)C(=O)O

Experiments:
[1] = test system: orthotopic 22Rv1 xenograft tumors; experiment: In vivo homing of FAM-labeled CREKA and methylated CREKA peptides; parameters: species or system mouse; conditions: for tumor fluorescence compared to unmodified CREKA: 200 μg FAM-conjugated peptide, 3 hrs, Image J
Protocol: Tumor accumulation of CREKA peptide and its N-methylated and C-methylated variants. The accumulation of N-methylated and C-methylated derivatives of CREKA was measured in mice bearing orthotropic 22Rv-1 xenograft tumors. The mice were intravenously injected with 200 μg of FAM-conjugated CREKA or methylated CREKA peptides derivatives. The peptides were allowed to circulate for 3 hrs. The mice were then perfused through the heart with PBS, and organs were collected and the fluorescence was measured under UV light. The fluorescence was analyzed with Image J software. Most N/C-methylated CREKA analogs produced stronger fluorescence compared to the unmodified CREKA. […] In FIG. 10B the enhanced fluorescence of CR(NMe)EKA is shown in the tumor compared to both CREKA and C(NMe)REKA peptide. It is shown that FAM-labeled CREKA peptide in which the glutamic acid is N-methylated accumulates in tumor tissue more strongly than unmodified CREKA.
Orthotopic prostate cancers were used when they reached 0.5-1 cm in size. Synthetic peptides labeled with fluorescein (approximately 200 μg) were intravenously injected into tumor-bearing mice and allowed to circulate for 15 minutes to 3 hours. The mice were perfused with PBS through the heart under anesthesia, and tissues were collected and observed under UV light (Illumatool Bright Light System LT-9900, Lightools Research, Encinitas, Calif.), and then processed for immunofluorescence or immunohistochemistry.

[2] = Nanoparticle clearance (blood half-life); type: in vivo, mouse
Protocol: Nanoparticle injections. For intravenous injections, the animals were anesthetized with intraperitoneal Avertin, and liposomes (2 μmol DSPC) and/or nanoparticles (1-4 mg Fe/kg body weight) were injected into the tail vein. The animals were sacrificed 5-24 h post-injection by cardiac perfusion with PBS under anesthesia, and organs were dissected and analyzed for particle homing. To suppress liver macrophages, mice were intravenously injected with liposomal clodronate suspension (100 μl per mouse), and the mice were used for experiments 24 hours later. Nanoparticle clearance. Heparinized capillaries were used to draw 50 μA of blood from the periorbital plexus at different times after nanoparticle injection, the blood was centrifuged at 300 g for 2 min, and a 10 μA aliquot of platelet-rich plasma was diluted into 600 μl 1M Tris solution, pH 8.4. Fluorescence was determined on a PerkinElmer (Norwalk, Conn.) LS50B spectrofluorometer, and plotted as a function of the time the particles had circulated.

[3] = test system: 22Rv1 orthotopic human prostate cancer tumors; experiment: Homing and clotting of peptide-coated iron oxide nanoworms/SPIO; type: in vivo, mouse; conditions: intravenous, Example 2
Protocol: To analyze NW biodistribution, mice bearing orthotopic 22Rv1 tumors were injected into the tail vein (5 mg of iron per kg body weight). In homing experiments, the mice were euthanized 5-6 hours after the injection by cardiac perfusion with PBS under anesthesia, and organs were dissected and analyzed for particle homing. In tumor treatment experiments, nude mice bearing 2 week-old 22Rv-1 or LAPC9 orthotopic xenografts (typically about 200-250 mm^3 in tumor volume) were intravenously injected with NW in 150 μl PBS or PBS as a control. The NW were injected every other day for 14 days. The total cumulative dose was 35 mg iron/kg. At the end of the treatment, the mice were perfused with PBS under anesthesia, and the tumors were harvested. Tumor volume was calculated using the following formula: volume (mm3)=(d2×D)/2, where d and D are the smallest and largest tumor diameters, respectively. […] The primary antibodies were detected with Alexa 647 goat anti-rat, and 647 donkey anti-goat secondary antibodies (1:1000; Molecular Probes, Eugene, Oreg.). […] The primary antibody was detected with biotinylated anti-mouse IgG and Vectastain ABC kit (Vector Laboratories, Burlingame, Calif.). […] To quantify the homing area of fibrin(ogen) within tumors the stained section were scanned with the Scanscope CM-1 scanner and analyzed with the ImageScope software41 (Aperio Technologies, Vista, Calif.).

[4] = test system: MDA-MB-435 human breast cancer xenograft tumors; experiment: Nanoparticle/liposome tumor homing and clotting in tumor vessels; type: in vivo, mouse
Protocol: Nanoparticle injections. For intravenous injections, the animals were anesthetized with intraperitoneal Avertin, and liposomes (2 μmol DSPC) and/or nanoparticles (1-4 mg Fe/kg body weight) were injected into the tail vein. The animals were sacrificed 5-24 h post-injection by cardiac perfusion with PBS under anesthesia, and organs were dissected and analyzed for particle homing. To suppress liver macrophages, mice were intravenously injected with liposomal clodronate suspension (100 μl per mouse), and the mice were used for experiments 24 hours later.
Intravital microscopy. Tumor blood flow in MDA-MB 435 xenograft-bearing mice was observed by intravital microscopy. Mice were pre-injected with Ni-liposomes and 5×10^8 of DiI-labeled erythrocytes. A skin flap was moved aside to expose the tumors, and the mice were intravenously injected with 4 mg/kg of fluorescein-CREKA-SPIO (time “0”). The tumors were scanned with IV-100 intravital laser scanning microscope (Olympus Corp., Tokyo, Japan) using an IV-OB35F22W29 MicroProbe objective (Olympus Corp., Tokyo, Japan). Movies were recorded at 10 min intervals up to 120 min post-injection.
Magnetic measurements of the tissue samples using Superconducting Quantum Interference Device (SQUID) magnetometer. Tissue samples were frozen immediately upon collection, lyophilized, weighed, and placed in gelatin capsules. The capsules were inserted into the middle of transparent plastic straws for magnetic measurements made using a Quantum Design MPMS2 SQUID magnetometer (San Diego, Calif.) operated at 150 K. The samples were exposed to direct current magnetic fields in stepwise increments up to one Tesla. Corrections were made for the diamagnetic contribution of tissue, capsule and straw.

human plasma clots = experiment: Nanoparticle binding to plasma clots in vitro
Protocol: (§1) Phage and nanoparticle binding to clots. Phage binding to clotted plasma proteins was determined as described (Pilch 2006). CREKA-SPIO and control SPIO were added to freshly formed plasma clots in the presence or absence of free CREKA peptide. After 10 min incubation, the clots were washed 4 times in PBS, transferred to a new tube and digested in 100 μl concentrated nitric acid. The digested material was diluted in 2 ml distilled water and the iron concentration was determined using inductively coupled plasma-optical emission spectroscopy (ICP-OES, PerkinElmer, Norwalk, Conn.).

mouse plasma clots = experiment: Nanoparticle binding to plasma clots in vitro
Protocol: as §1

[5] = intravenous, no decoy pretreatment

C(NMe)REKA: CREKA analog in which the arginine residue is N-methylated (C[NMeR]EKA)
tumor fluorescence compared to unmodified CREKA [1]: did not show an enhanced fluorescence | tumor accumulation / fluorescence of CREKA analogs ([1]; FAM-labeled peptides, Example 3): only weak tumor fluorescence

CR(CMe)EKA: Cα-methylated CREKA analog (C[αMeR]EKA)
tumor fluorescence compared to unmodified CREKA [1]: significantly more fluorescence

CR(NMe)E(NMe)KA: doubly N-methylated CREKA analog (C[NMeR][NMeE]KA)
tumor fluorescence compared to unmodified CREKA [1]: significantly more fluorescence

CRE(CMe)KA: Cα-methylated CREKA analog (CR[αMeE]KA)
tumor fluorescence compared to unmodified CREKA [1]: significantly more fluorescence | accumulation in areas rich in fibrin(ogen) and fibronectin ([1]; confocal microscopy of tumor sections): equally active

CRE(NMe)KA: N-methylated CREKA analog (CR[NMeE]KA)
tumor fluorescence compared to unmodified CREKA [1]: significantly more fluorescence

CREKA-SPIO: fluorescein-labeled CREKA coupled onto 50 nm superparamagnetic amino dextran-coated iron oxide nanoparticles (not fully specified (N-terminus); also: conjugated to dextran-coated superparamagnetic iron oxide nanoparticles (SPIO))
prolongation in particle half-life ([2]; after depleting RES macrophages with liposomal clodronate): ~5 fold | blood half-life and tumor homing after decoy particles ([2]; plain liposomes as decoy particles): prolonged the blood half-life | tumor homing [3]: effectively home to 22Rv-1 tumors | whole-body scan tumor signal ([4]; Cy7-labeled, near infrared): effectively accumulated in tumors | intravital confocal microscopy of tumor blood vessels ([4]; DiI-labeled erythrocytes as flow marker, 4 mg/kg): time-dependent clot formation and obstruction of blood flow | accumulation in Ni-liposome-pretreated compared to PBS-pretreated mice ([4]; SQUID tumor magnetization and fluorescence signal): about 6 fold | reduction of tumor accumulation by heparin ([4]; SQUID, heparin prior to injection): more than 50% | tumor vessel lumens filled with fluorescent masses (occlusion) ([4]; after liposome pretreatment): up to 20% | effect of thrombocytopenia on homing ([4]; anti-CD41 monoclonal antibody): no noticeable effect | heparin effect on intravascular clotting ([4]; heparin pretreatment): essentially eliminated | heparin effect on number of vessels with nanoparticles bound to the vessel walls ([4]; heparin pretreatment): did not significantly reduce | accumulation in tumor [4, 5]: did not accumulate effectively | particles in reticuloendothelial system (RES) tissues [4, 5]: high concentration of particles | tumor homing after Ni-liposome pretreatment ([4]; pretreatment 5 min or 48 h prior): greatly increased the tumor homing | localization of nanoparticle-induced clotting ([4]; tumor versus kidneys, lungs, liver): essentially confined to tumor vessels | binding to plasma clots (human plasma clots): bound to mouse and human plasma clots | binding to plasma clots (mouse plasma clots): bound to mouse and human plasma clots
